Data as given in ChEMBL document CHEMBL3627715, “Caffeoyl glucosides from Nandina domestica inhibit LPS-induced endothelial inflammatory responses” (Bioorg Med Chem Lett, 2015).

Legend:
HUVEC [1] = experiment: Cytotoxicity against HUVEC cells assessed as neutrophil adhesion at 2.5 to 20 uM after 6 hrs by fluorescence microplate reader assay; format: cell-based; details: human
HUVEC [2] = experiment: Inhibition of LPS-induced neutrophil adhesion in HUVEC cells for 6 hrs pretreated with LPS for 4 hrs by fluorescence microplate reader assay; format: functional, cell-based; details: Homo sapiens
HUVEC [3] = experiment: Inhibition of LPS-induced neutrophil migration in HUVEC cells assessed as migration index at 20 uM for 6 hrs pretreated with LPS for 4 hrs (reference value: 155); format: functional, Homo sapiens
HUVEC [4] = experiment: Inhibition of LPS-induced neutrophil adhesion in HUVEC cells assessed as neutrophil adhesion to cell monolayer at 20 uM for 6 hrs pretreated with LPS for 4 hrs by fluorescence microplate reader assay (reference value: 86%); format: functional, Homo sapiens; parameters: scale not given: the % may be the effect or the level left
HUVEC [5] = experiment: Inhibition of LPS-induced hyperpermeability in HUVEC cells assessed as permeability at 20 uM for 6 hrs pretreated with LPS for 4 hrs by evans blue dye flux based immunofluorescence analysis (reference value: 100%); format: functional, Homo sapiens; parameters: scale not given: the % may be the effect or the level left
[6] = Acid hydrolysis of compound assessed as retention time at 2 mg after 6 hrs by RP-HPLC method; format: physicochemical
HUVEC [7] = experiment: Cytotoxicity against HUVEC cells assessed as neutrophil migration at 2.5 to 20 uM after 6 hrs; format: cell-based; details: human
HUVEC [8] = experiment: Cytotoxicity against HUVEC cells assessed as permeability at 2.5 to 20 uM after 6 hrs by evans blue dye flux based immunofluorescence analysis; format: cell-based; details: human
HUVEC [9] = experiment: Inhibition of LPS-induced hyperpermeability in HUVEC cells for 6 hrs pretreated with LPS for 4 hrs by evans blue dye flux based immunofluorescence analysis; format: functional, cell-based; details: Homo sapiens
HUVEC [10] = experiment: Inhibition of LPS-induced neutrophil migration in HUVEC cells for 6 hrs pretreated with LPS for 4 hrs; format: functional, cell-based; details: Homo sapiens

Row | SMILES | Activity (HUVEC [1]) | inhibition (HUVEC [2]) | Activity_index (HUVEC [3]) | Activity (HUVEC [4]) [%] | Activity (HUVEC [5]) [%] | Retention_time [6] [min] | Activity (HUVEC [7]) | Activity (HUVEC [8]) | inhibition (HUVEC [9]) | inhibition (HUVEC [10])
1 | O=Cc1ccc(O[C@@H]2O[C@H](COC(=O)/C=C/c3ccc(O)c(O)c3)[C@@H](O)[C@H](O)[C@H]2O)cc1 | Non-toxic | Dose-dependent effect | 75 | 30 | 73 | 28.1 | Non-toxic | Non-toxic | Dose-dependent effect | Dose-dependent effect
2 | O=c1cc(-c2ccc(O)c(O)c2)oc2c([C@@H]3O[C@H](CO)[C@@H](O)[C@H](O)[C@H]3O)c(O)cc(O)c12 [ORIENTIN] |  |  | 73 | 41 | 71 |  |  |  |  | Dose-dependent effect
3 | O=Cc1ccc(O[C@@H]2O[C@H](CO)[C@@H](OC(=O)/C=C/c3ccc(O)c(O)c3)[C@H](O)[C@H]2O)cc1 | Non-toxic | Dose-dependent effect | 74 | 33 | 58 |  | Non-toxic | Non-toxic | Dose-dependent effect | Dose-dependent effect
4 | O=C(/C=C/c1ccc(O)c(O)c1)OCc1ccc(O[C@@H]2O[C@H](CO)[C@@H](O)[C@H](O)[C@H]2O)cc1 |  |  | 142 | 73 |  |  |  |  |  | 
